# Source: patent EP0178438A1, “Novel compounds” (BEECHAM GROUP PLC, priority 1984, dated 1986)
# Test system: acid secretion
# Assay: perfused rat stomach preparation (anti-secretory response, pH of perfusate)
# Type: in vivo, male Wistar rats
# Conditions: bolus intravenous injection, maximal reduction in hydrogen-ion concentration as percentage of control, carbachol or histamine stimulated, urethane anaesthetized rat; for inhibition in vivo at 2 µmol/kg: Dose 2 μmol/kg; for inhibition in vivo at 1 µmol/kg: Dose 1 μmol/kg; for inhibition in vivo at 2.5 µmol/kg: Dose 2.5 μmol/kg
# Experimental: The modified (1) perfused stomach preparation (2) ofthe urethane (25% solution) anaesthetized rat, maintained at 37 °C, allows the continuous measurement of pH during basal and stimulated acid secretion.
# The lumen of the stomach of male Wistar rats (approximately 200 g bodyweight) was perfused, via a cannula designed to reduce the dead space of the stomach, with 5% glucose solution (37°C) at the rate of 3 ml/min. The perusate was forced over the surface of the secretory mucose only, the antrum being excluded. The effluent then passed over a microflow type glass pH electrode via a collecting funnel situated in the non-glandular forestomach.
# The secretagogue carbachol or histamine was administered as a constant intravenous infusion to produce a stady rate of acid secretion. Test compounds were administered in solution as bolus intravenous injections and any effect on th pH of the perfusate noted. The perfusate Ph was recorded on a potentiometric recorder and anti-secretory responses were measure in terms of the maximal reduction in hydrogen-ion concentration expressed as a percentage of the 'control' concentrations.
smiles,measurement,setting,value
"Cc1cnc(C[S+]([O-])c2nc3ccccc3[nH]2)c(C)c1N1CCOCC1 (centres unmarked) [Example 8b, 2-[(3,5-dimethyl-4-morpholino-pyrid-2-yl)methylsulphinyl]benzimidazole]",inhibition in vivo at 0.5 µmol/kg,Dose 0.5 μmol/kg,72%
"Cc1cnc(C[S+]([O-])c2nc3ccccc3[nH]2)c(C)c1N1CCCCC1 (centres unmarked) [Example 6b, 2-[(3,5-dimethyl-4-(piperid-1-yl)pyrid-2-yl)methylsulphinyl]benzimidazole]",inhibition in vivo at 2 µmol/kg,,50%
Cc1c(N(C)c2ccccc2)ccnc1C[S+]([O-])c1nc2ccccc2[nH]1 (centres unmarked) [Example 24b],inhibition in vivo at 2 µmol/kg,,100%
"Cc1cnc(C[S+]([O-])c2nc3ccccc3[nH]2)c(C)c1N(C)C (centres unmarked) [Example 2, 2-[ (4-Dimethylamino-3,5-dimethylpyrid-2-1)methylsulphinyl] benzimidazole]",inhibition in vivo at 1 µmol/kg,,37%
"Cc1c(C[S+]([O-])c2nc3ccccc3[nH]2)ncnc1N1CCCCC1 (centres unmarked) [Example 25b, 2-[(5-Methyl-4-(1-piperidinyl)-pyrimidin-6-yl)methylsulphinyl]benzimidazole]",inhibition in vivo at 2 µmol/kg,,84%
"Cc1c(N2CCOCC2)ccnc1C[S+]([O-])c1nc2ccccc2[nH]1 (centres unmarked) [Example 21b, 2-[(3-Methyl-4-morpholino-pyrid-2-yl)methylsulphinyl]-benzimidazole]",inhibition in vivo at 2 µmol/kg,,87%
"Cc1cnc(C[S+]([O-])c2nc3cc(Cl)ccc3[nH]2)c(C)c1N(C)C (centres unmarked) [Example 11b, 5-Chloro-2-[(4-dimethylamino-3,5-dimethypyrid-2-yl)-methylsulphinyl]benzimidazole]",inhibition in vivo at 2 µmol/kg,,37%
"Cc1c(C[S+]([O-])c2nc3ccccc3[nH]2)ncnc1N(C)C (centres unmarked) [Example 27b, 2-[(5-Methyl-4-dimethylamino-pyrimidin-6-yl)methylsulphinyl]benzimidazole]",inhibition in vivo at 2.5 µmol/kg,,92%
"Cc1cnc(C[S+]([O-])c2nc3ccccc3[nH]2)c(C)c1Nc1ccccc1 (centres unmarked) [Example 23b, 2-[(3,5-Dimethyl-4-N-anilino-pyrid-2-yl)methylsulphinyl]benzimidazole]",inhibition in vivo at 5 µmol/kg,Dose 5 μmol/kg,86%
"Cc1cnc(C[S+]([O-])c2nc3ccc(Cl)cc3[nH]2)c(C)c1N1CCOCC1 (centres unmarked) [Example 14b, 5-Chloro-2-[(3,5-dimethyl-4-morpholinopyrid-2-yl)-methylsulphinyl]benzimidazole]",inhibition in vivo at 1 µmol/kg,,60%
"Cc1c(C[S+]([O-])c2nc3ccccc3[nH]2)ncnc1N1CCOCC1 (centres unmarked) [Example 26b, 2-[(5-Methyl-4-morpholino-pyrimidin-6-yl)methylsulphinyl]benzimidazole]",inhibition in vivo at 2.5 µmol/kg,,84%
